{"source": "ChEMBL document CHEMBL1138438", "about": "“Structural-activity relationship study of highly-functionalized imidazolines as potent inhibitors of nuclear transcription factor-kappaB mediated IL-6 production” (Bioorg Med Chem, 2009)", "key": {"HeLa [1]": {"test_system": "HeLa", "test": "Cell cycle arrest in TNF-alpha-stimulated human HeLa cells transfected with NFkappaB-Luc assessed as accumulation at diploid S phase at 5 uM after 8 hrs by using propidium iodide staining by FACS analysis", "format": "functional"}, "HeLa [2]": {"test_system": "HeLa", "test": "Effect on cell cycle arrest in TNF-alpha-stimulated human HeLa cells transfected with NFkappaB-Luc assessed as total background cell aggregate and debris level at 5 uM after 8 hrs by using propidium iodide staining by FACS analysis", "format": "functional"}, "HeLa [3]": {"test_system": "HeLa", "test": "Cell cycle arrest in TNF-alpha-stimulated human HeLa cells transfected with NFkappaB-Luc assessed as accumulation at diploid G1 phase at 1 uM after 8 hrs by using propidium iodide staining by FACS analysis", "format": "functional"}, "HeLa [4]": {"test_system": "HeLa", "test": "Cell cycle arrest in TNF-alpha-stimulated human HeLa cells transfected with NFkappaB-Luc assessed as accumulation at diploid G2 phase at 1 uM after 8 hrs by using propidium iodide staining by FACS analysis", "format": "functional"}, "HeLa [5]": {"test_system": "HeLa", "test": "Effect on cell cycle arrest in TNF-alpha-stimulated human HeLa cells transfected with NFkappaB-Luc assessed as total background cell aggregate and debris level at 1 uM after 8 hrs by using propidium iodide staining by FACS analysis", "format": "functional"}, "HeLa [6]": {"test_system": "HeLa", "test": "Effect on cell cycle arrest in TNF-alpha-stimulated human HeLa cells transfected with NFkappaB-Luc assessed as cell debris level at 1 uM after 8 hrs by using propidium iodide staining by FACS analysis", "format": "functional"}, "HeLa [7]": {"test_system": "HeLa", "test": "Cell cycle arrest in TNF-alpha-stimulated human HeLa cells transfected with NFkappaB-Luc assessed as accumulation at diploid stage at 0.5 uM after 8 hrs by using propidium iodide staining by FACS analysis", "format": "functional"}, "HeLa [8]": {"test_system": "HeLa", "test": "Cell cycle arrest in TNF-alpha-stimulated human HeLa cells transfected with NFkappaB-Luc assessed as accumulation at diploid G1 phase at 0.5 uM after 8 hrs by using propidium iodide staining by FACS analysis", "format": "functional"}, "HeLa [9]": {"test_system": "HeLa", "test": "Effect on cell cycle arrest in TNF-alpha-stimulated human HeLa cells transfected with NFkappaB-Luc assessed as cell aggregate level at 0.5 uM after 8 hrs by using propidium iodide staining by FACS analysis", "format": "functional"}, "HeLa [10]": {"test_system": "HeLa", "test": "Cell cycle arrest in TNF-alpha-stimulated human HeLa cells transfected with NFkappaB-Luc assessed as accumulation at diploid G2 phase at 0.1 uM after 8 hrs by using propidium iodide staining by FACS analysis", "format": "functional"}, "HeLa [11]": {"test_system": "HeLa", "test": "Cell cycle arrest in TNF-alpha-stimulated human HeLa cells transfected with NFkappaB-Luc assessed as accumulation at G2/G1 phase at 0.1 uM after 8 hrs by using propidium iodide staining by FACS analysis", "format": "functional"}, "HeLa [12]": {"test_system": "HeLa", "test": "Cell cycle arrest in TNF-alpha-stimulated human HeLa cells transfected with NFkappaB-Luc assessed as accumulation at total S phase at 0.1 uM after 8 hrs by using propidium iodide staining by FACS analysis", "format": "functional"}, "HeLa [13]": {"test_system": "HeLa", "test": "Effect on cell cycle arrest in TNF-alpha-stimulated human HeLa cells transfected with NFkappaB-Luc assessed as cell aggregate level at 0.1 uM after 8 hrs by using propidium iodide staining by FACS analysis", "format": "functional"}, "HeLa [14]": {"test_system": "HeLa", "test": "Effect on cell cycle arrest in TNF-alpha-stimulated human HeLa cells transfected with NFkappaB-Luc assessed as total background cell aggregate and debris level at 0.05 uM after 8 hrs by using propidium iodide staining by FACS analysis", "format": "functional"}, "HeLa [15]": {"test_system": "HeLa", "test": "Effect on cell cycle arrest in TNF-alpha-stimulated human HeLa cells transfected with NFkappaB-Luc assessed as cell debris level at 0.05 uM after 8 hrs by using propidium iodide staining by FACS analysis", "format": "functional"}, "[16]": {"test": "Cytotoxicity against human whole blood lymphocytes assessed as survival cell count in millions at 10 uM after 24 hrs by trypan blue staining-based hemocytometry"}, "[17]": {"test": "Cytotoxicity against IL-1-beta-stimulated human whole blood lymphocytes assessed as survival cell count in millions at 10 uM after 24 hrs by trypan blue staining-based hemocytometry"}, "[18]": {"test": "Cytotoxicity against IL-1-beta-stimulated human whole blood lymphocytes assessed as survival cell count in millions at 3 uM after 24 hrs by trypan blue staining-based hemocytometry"}, "[19]": {"test": "Cytotoxicity against IL-1-beta-stimulated human whole blood lymphocytes assessed as survival cell count in millions at 1 uM after 24 hrs by trypan blue staining-based hemocytometry"}, "[20]": {"test": "Cytotoxicity against human 184B5 cells after 24 hrs by MTS assay", "format": "cell-based"}, "HeLa [21]": {"test_system": "HeLa", "test": "Cell cycle arrest in human HeLa cells transfected with NFkappaB-Luc assessed as accumulation at diploid stage at 20 uM after 8 hrs by using propidium iodide staining by FACS analysis", "format": "functional"}, "HeLa [22]": {"test_system": "HeLa", "test": "Cell cycle arrest in human HeLa cells transfected with NFkappaB-Luc assessed as accumulation at diploid G1 phase at 20 uM after 8 hrs by using propidium iodide staining by FACS analysis", "format": "functional"}, "HeLa [23]": {"test_system": "HeLa", "test": "Cell cycle arrest in human HeLa cells transfected with NFkappaB-Luc assessed as accumulation at diploid G2 phase at 20 uM after 8 hrs by using propidium iodide staining by FACS analysis", "format": "functional"}, "HeLa [24]": {"test_system": "HeLa", "test": "Cell cycle arrest in human HeLa cells transfected with NFkappaB-Luc assessed as accumulation at diploid S phase at 20 uM after 8 hrs by using propidium iodide staining by FACS analysis", "format": "functional"}, "HeLa [25]": {"test_system": "HeLa", "test": "Cell cycle arrest in human HeLa cells transfected with NFkappaB-Luc assessed as accumulation at total S phase at 20 uM after 8 hrs by using propidium iodide staining by FACS analysis", "format": "functional"}, "HeLa [26]": {"test_system": "HeLa", "test": "Effect on cell cycle arrest in human HeLa cells transfected with NFkappaB-Luc assessed as total background cell aggregate and debris level at 20 uM after 8 hrs by using propidium iodide staining by FACS analysis", "format": "functional"}, "HeLa [27]": {"test_system": "HeLa", "test": "Effect on cell cycle arrest in human HeLa cells transfected with NFkappaB-Luc assessed as cell debris level at 20 uM after 8 hrs by using propidium iodide staining by FACS analysis", "format": "functional"}, "HeLa [28]": {"test_system": "HeLa", "test": "Effect on cell cycle arrest in TNF-alpha-stimulated human HeLa cells transfected with NFkappaB-Luc assessed as cell debris level at 20 uM after 8 hrs by using propidium iodide staining by FACS analysis", "format": "functional"}, "HeLa [29]": {"test_system": "HeLa", "test": "Effect on cell cycle arrest in TNF-alpha-stimulated human HeLa cells transfected with NFkappaB-Luc assessed as cell aggregate level at 20 uM after 8 hrs by using propidium iodide staining by FACS analysis", "format": "functional"}, "HeLa [30]": {"test_system": "HeLa", "test": "Cell cycle arrest in TNF-alpha-stimulated human HeLa cells transfected with NFkappaB-Luc assessed as accumulation at total S phase at 10 uM after 8 hrs by using propidium iodide staining by FACS analysis", "format": "functional"}, "HeLa [31]": {"test_system": "HeLa", "test": "Effect on cell cycle arrest in TNF-alpha-stimulated human HeLa cells transfected with NFkappaB-Luc assessed as total background cell aggregate and debris level at 10 uM after 8 hrs by using propidium iodide staining by FACS analysis", "format": "functional"}, "HeLa [32]": {"test_system": "HeLa", "test": "Effect on cell cycle arrest in TNF-alpha-stimulated human HeLa cells transfected with NFkappaB-Luc assessed as cell debris level at 10 uM after 8 hrs by using propidium iodide staining by FACS analysis", "format": "functional"}, "HeLa [33]": {"test_system": "HeLa", "test": "Cell cycle arrest in TNF-alpha-stimulated human HeLa cells transfected with NFkappaB-Luc assessed as accumulation at diploid stage at 5 uM after 8 hrs by using propidium iodide staining by FACS analysis", "format": "functional"}}}
{"smiles": "CCOC(=O)[C@]1(c2ccccc2)N=C(c2ccccc2)N(Cc2ccccc2)[C@@H]1c1ccccc1", "note": "(racemic)", "values": [{"measurement": "Activity", "setting": "HeLa [1]", "result": 19.8, "unit": "%"}, {"measurement": "Activity", "setting": "HeLa [2]", "result": 1.14, "unit": "%"}, {"measurement": "Activity", "setting": "HeLa [3]", "result": 63.22, "unit": "%"}, {"measurement": "Activity", "setting": "HeLa [4]", "result": 13.88, "unit": "%"}, {"measurement": "Activity", "setting": "HeLa [5]", "result": 1.87, "unit": "%"}, {"measurement": "Activity", "setting": "HeLa [6]", "result": 4.88, "unit": "%"}, {"measurement": "Activity", "setting": "HeLa [7]", "result": 100, "unit": "%"}, {"measurement": "Activity", "setting": "HeLa [8]", "result": 64.08, "unit": "%"}, {"measurement": "Activity", "setting": "HeLa [9]", "result": 0, "unit": "%"}, {"measurement": "Activity", "setting": "HeLa [10]", "result": 14.03, "unit": "%"}, {"measurement": "Activity", "setting": "HeLa [11]", "result": 1.92, "unit": "%"}, {"measurement": "Activity", "setting": "HeLa [12]", "result": 21.47, "unit": "%"}, {"measurement": "Activity", "setting": "HeLa [13]", "result": 0, "unit": "%"}, {"measurement": "Activity", "setting": "HeLa [14]", "result": 1.06, "unit": "%"}, {"measurement": "Activity", "setting": "HeLa [15]", "result": 2.47, "unit": "%"}, {"measurement": "Activity", "setting": "[16]", "result": 1.04, "unit": "mL⁻¹"}, {"measurement": "Activity", "setting": "[17]", "result": 0.92, "unit": "mL⁻¹"}, {"measurement": "Activity", "setting": "[18]", "result": 1.06, "unit": "mL⁻¹"}, {"measurement": "Activity", "setting": "[19]", "result": 1.18, "unit": "mL⁻¹"}, {"measurement": "CC50 at 24 h", "setting": "[20]", "result": "> 10", "unit": "µM"}, {"measurement": "Activity", "setting": "HeLa [21]", "result": 100, "unit": "%"}, {"measurement": "Activity", "setting": "HeLa [22]", "result": 65.19, "unit": "%"}, {"measurement": "Activity", "setting": "HeLa [23]", "result": 13.33, "unit": "%"}, {"measurement": "Activity", "setting": "HeLa [24]", "result": 21.48, "unit": "%"}, {"measurement": "Activity", "setting": "HeLa [25]", "result": 21.48, "unit": "%"}, {"measurement": "Activity", "setting": "HeLa [26]", "result": 3.86, "unit": "%"}, {"measurement": "Activity", "setting": "HeLa [27]", "result": 9.42, "unit": "%"}, {"measurement": "Activity", "setting": "HeLa [28]", "result": 14.57, "unit": "%"}, {"measurement": "Activity", "setting": "HeLa [29]", "result": 0, "unit": "%"}, {"measurement": "Activity", "setting": "HeLa [30]", "result": 16.8, "unit": "%"}, {"measurement": "Activity", "setting": "HeLa [31]", "result": 6.27, "unit": "%"}, {"measurement": "Activity", "setting": "HeLa [32]", "result": 15.28, "unit": "%"}, {"measurement": "Activity", "setting": "HeLa [33]", "result": 100, "unit": "%"}]}
